Laboratory results reported in the kinase profiling compilation of Christmann-Franck et al. (2016).

Key:
Assay in all cases: radiometric filter-binding kinase assay, Kinase HotSpot
Conditions in all cases: compound 0.5 µM; ATP 10 µM
[1] = molecular target: MAP3K14 (human) (UniProt Q99558)
[2] = molecular target: HIPK1 (human) (UniProt Q86Z02)
[3] = molecular target: MAP3K10 (human) (UniProt Q02779)
[4] = molecular target: CSNK1D (human) (UniProt P48730)
[5] = molecular target: TSSK1B (human) (UniProt Q9BXA7)
[6] = molecular target: ZAP70 (human) (UniProt P43403)
[7] = molecular target: PKN1 (human) (UniProt Q16512)
Chain of PKN1 (human) (Q16512 whole entry, looked up): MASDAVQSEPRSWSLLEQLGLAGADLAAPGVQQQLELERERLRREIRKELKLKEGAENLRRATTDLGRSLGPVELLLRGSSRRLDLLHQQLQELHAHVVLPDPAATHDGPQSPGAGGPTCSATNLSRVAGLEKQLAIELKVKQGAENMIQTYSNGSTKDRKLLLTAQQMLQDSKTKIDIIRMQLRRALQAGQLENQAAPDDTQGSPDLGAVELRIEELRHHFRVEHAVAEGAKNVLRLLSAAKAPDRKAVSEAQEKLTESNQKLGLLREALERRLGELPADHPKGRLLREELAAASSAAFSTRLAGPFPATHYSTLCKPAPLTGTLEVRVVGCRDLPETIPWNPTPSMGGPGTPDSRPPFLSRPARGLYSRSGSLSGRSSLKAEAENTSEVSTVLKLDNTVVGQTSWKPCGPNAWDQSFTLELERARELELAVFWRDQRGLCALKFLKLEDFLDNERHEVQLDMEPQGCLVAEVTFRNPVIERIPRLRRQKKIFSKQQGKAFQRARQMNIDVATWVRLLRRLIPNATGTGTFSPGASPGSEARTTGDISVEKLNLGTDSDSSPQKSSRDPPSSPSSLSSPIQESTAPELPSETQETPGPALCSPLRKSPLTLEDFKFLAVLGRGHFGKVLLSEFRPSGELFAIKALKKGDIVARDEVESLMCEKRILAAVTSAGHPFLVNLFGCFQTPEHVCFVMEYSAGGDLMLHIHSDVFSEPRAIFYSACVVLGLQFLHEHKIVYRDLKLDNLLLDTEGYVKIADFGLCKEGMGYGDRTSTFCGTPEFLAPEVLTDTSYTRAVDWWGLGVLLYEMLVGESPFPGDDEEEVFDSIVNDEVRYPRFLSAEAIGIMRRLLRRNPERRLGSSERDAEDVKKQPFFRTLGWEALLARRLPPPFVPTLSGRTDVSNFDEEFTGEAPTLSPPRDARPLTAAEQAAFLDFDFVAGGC

[8] = molecular target: CDK5 CDK5R1 p35 (human) (UniProt Q00535+Q15078)
[9] = molecular target: MAP4K4 (human) (UniProt O95819)
[10] = molecular target: NEK2 (human) (UniProt P51955)
[11] = molecular target: CDK4 CCND3 (human) (UniProt P30281+P11802)
[12] = molecular target: RAF1 (human) (UniProt P04049)
[13] = molecular target: CDK2 CCNE1 (human) (UniProt P24941+P24864)
[14] = molecular target: CDK2 CCNA2 (human) (UniProt P24941+P20248)
[15] = molecular target: FYN (human) (UniProt P06241)
Chain of FYN (human) (P06241 whole entry, looked up): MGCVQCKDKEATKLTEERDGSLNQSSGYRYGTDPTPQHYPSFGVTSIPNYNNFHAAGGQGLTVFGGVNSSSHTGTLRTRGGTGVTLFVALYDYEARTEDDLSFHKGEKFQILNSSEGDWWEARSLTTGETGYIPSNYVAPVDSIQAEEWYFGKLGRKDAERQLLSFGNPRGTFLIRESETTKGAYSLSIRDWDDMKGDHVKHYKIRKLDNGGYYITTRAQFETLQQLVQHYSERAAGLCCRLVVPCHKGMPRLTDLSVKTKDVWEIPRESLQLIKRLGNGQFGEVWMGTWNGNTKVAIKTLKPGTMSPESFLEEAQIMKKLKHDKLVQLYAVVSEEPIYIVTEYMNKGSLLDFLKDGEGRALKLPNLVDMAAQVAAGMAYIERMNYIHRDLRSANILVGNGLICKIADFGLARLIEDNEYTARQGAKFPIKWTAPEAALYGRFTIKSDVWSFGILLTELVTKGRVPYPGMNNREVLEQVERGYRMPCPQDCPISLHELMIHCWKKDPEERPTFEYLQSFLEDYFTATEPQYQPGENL

[16] = molecular target: TYK2 JH1 catalytic (human) (UniProt P29597)
Chain of TYK2 JH1 catalytic (human) (P29597 whole entry, looked up): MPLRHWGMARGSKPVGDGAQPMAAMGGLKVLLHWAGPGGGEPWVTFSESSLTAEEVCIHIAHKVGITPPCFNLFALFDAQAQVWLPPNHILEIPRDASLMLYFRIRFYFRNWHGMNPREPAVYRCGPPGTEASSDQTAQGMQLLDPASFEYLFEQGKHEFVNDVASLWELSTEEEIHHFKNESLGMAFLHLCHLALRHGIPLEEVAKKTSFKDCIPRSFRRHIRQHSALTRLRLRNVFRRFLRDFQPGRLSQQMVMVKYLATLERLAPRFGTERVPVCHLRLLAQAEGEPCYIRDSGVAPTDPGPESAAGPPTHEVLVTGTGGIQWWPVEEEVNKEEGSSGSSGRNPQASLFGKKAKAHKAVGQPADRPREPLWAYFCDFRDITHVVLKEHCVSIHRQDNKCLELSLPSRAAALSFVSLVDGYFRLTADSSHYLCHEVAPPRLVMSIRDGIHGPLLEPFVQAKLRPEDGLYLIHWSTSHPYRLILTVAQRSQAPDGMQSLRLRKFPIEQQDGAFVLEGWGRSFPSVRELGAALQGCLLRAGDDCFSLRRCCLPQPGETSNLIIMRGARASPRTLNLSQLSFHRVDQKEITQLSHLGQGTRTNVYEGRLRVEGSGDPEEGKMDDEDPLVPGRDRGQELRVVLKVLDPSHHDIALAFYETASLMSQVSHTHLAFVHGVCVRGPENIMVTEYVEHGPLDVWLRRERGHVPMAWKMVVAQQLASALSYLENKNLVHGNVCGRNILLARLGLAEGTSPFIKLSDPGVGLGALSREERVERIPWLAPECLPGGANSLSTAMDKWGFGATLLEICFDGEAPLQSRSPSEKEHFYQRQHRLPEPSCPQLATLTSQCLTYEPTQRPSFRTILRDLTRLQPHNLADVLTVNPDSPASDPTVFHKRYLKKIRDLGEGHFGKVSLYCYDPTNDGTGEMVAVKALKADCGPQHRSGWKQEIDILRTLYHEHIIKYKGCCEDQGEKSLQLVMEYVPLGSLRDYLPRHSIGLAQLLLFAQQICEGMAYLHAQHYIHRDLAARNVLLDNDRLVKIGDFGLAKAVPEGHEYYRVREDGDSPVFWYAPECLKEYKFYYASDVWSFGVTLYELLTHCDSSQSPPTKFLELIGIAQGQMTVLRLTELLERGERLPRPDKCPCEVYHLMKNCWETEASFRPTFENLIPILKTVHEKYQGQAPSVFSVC

[17] = molecular target: AURKC (human) (UniProt Q9UQB9)
[18] = molecular target: ADRBK1 (human) (UniProt P25098)
[19] = molecular target: FLT1 (human) (UniProt P17948)
[20] = molecular target: TSSK2 (human) (UniProt Q96PF2)
[21] = molecular target: PBK (human) (UniProt Q96KB5)
[22] = molecular target: MERTK (human) (UniProt Q12866)
Chain of MERTK (human) (Q12866 whole entry, looked up): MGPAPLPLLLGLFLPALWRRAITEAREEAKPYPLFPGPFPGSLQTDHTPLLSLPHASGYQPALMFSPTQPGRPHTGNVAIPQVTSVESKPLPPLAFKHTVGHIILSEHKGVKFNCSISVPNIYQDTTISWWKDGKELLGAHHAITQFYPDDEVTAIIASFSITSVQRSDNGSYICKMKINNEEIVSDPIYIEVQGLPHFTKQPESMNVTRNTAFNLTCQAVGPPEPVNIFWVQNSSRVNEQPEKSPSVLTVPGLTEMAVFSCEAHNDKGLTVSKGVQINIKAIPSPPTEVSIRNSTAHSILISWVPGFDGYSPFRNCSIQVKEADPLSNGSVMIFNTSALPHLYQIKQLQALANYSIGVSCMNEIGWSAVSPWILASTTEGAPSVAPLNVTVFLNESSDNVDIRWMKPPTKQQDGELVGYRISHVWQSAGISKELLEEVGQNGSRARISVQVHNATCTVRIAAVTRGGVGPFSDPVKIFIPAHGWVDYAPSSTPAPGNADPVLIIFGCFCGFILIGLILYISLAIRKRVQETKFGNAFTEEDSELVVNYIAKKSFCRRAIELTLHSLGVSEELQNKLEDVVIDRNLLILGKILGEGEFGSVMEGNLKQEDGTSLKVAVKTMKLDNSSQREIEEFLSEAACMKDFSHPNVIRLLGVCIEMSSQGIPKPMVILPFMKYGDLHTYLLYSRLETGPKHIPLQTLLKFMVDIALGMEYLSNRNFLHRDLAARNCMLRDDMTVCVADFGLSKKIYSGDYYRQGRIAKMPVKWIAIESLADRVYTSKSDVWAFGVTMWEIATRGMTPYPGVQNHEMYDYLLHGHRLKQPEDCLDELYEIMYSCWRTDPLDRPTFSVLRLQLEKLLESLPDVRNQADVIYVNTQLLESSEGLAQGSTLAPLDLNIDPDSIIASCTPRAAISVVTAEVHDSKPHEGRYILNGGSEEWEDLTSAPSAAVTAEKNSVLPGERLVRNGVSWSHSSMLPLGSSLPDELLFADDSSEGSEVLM

[23] = molecular target: NTRK1 (human) (UniProt P04629)
[24] = molecular target: GSG2 (human) (UniProt Q8TF76)
[25] = molecular target: ITK (human) (UniProt Q08881)
[26] = molecular target: NUAK2 (human) (UniProt Q9H093)
[27] = molecular target: MAP3K5 (human) (UniProt Q99683)
[28] = molecular target: MAPK13 (human) (UniProt O15264)
[29] = molecular target: CAMKK1 (human) (UniProt Q8N5S9)
[30] = molecular target: PLK2 (human) (UniProt Q9NYY3)
[31] = molecular target: CAMK2G (human) (UniProt Q13555)
[32] = molecular target: SYK (human) (UniProt P43405)
[33] = molecular target: BTK (human) (UniProt Q06187)
[34] = molecular target: JAK2 JH1 JH2 (human) (UniProt O60674)
[35] = molecular target: HIPK4 (human) (UniProt Q8NE63)
[36] = molecular target: IRAK1 (human) (UniProt P51617)
[37] = molecular target: STK4 (human) (UniProt Q13043)
[38] = molecular target: SRPK2 (human) (UniProt P78362)
[39] = molecular target: GSK3B (human) (UniProt P49841)
[40] = molecular target: SRPK3 (human) (UniProt Q9UPE1)
[41] = molecular target: CHUK (human) (UniProt O15111)
[42] = molecular target: AKT2 (human) (UniProt P31751)

Chain of CSNK1D (human) (P48730 whole entry, looked up): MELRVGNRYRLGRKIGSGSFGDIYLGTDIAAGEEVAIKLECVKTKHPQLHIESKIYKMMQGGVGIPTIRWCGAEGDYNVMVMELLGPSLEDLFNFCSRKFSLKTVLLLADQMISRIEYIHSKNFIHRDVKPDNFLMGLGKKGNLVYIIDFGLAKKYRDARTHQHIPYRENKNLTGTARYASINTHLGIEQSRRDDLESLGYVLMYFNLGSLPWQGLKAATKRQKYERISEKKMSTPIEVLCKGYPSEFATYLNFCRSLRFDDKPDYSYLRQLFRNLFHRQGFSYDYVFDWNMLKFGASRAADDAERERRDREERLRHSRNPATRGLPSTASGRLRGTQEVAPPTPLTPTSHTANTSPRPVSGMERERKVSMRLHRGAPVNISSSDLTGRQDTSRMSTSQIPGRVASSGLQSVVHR
Chain of MAP3K14 (human) (Q99558 whole entry, looked up): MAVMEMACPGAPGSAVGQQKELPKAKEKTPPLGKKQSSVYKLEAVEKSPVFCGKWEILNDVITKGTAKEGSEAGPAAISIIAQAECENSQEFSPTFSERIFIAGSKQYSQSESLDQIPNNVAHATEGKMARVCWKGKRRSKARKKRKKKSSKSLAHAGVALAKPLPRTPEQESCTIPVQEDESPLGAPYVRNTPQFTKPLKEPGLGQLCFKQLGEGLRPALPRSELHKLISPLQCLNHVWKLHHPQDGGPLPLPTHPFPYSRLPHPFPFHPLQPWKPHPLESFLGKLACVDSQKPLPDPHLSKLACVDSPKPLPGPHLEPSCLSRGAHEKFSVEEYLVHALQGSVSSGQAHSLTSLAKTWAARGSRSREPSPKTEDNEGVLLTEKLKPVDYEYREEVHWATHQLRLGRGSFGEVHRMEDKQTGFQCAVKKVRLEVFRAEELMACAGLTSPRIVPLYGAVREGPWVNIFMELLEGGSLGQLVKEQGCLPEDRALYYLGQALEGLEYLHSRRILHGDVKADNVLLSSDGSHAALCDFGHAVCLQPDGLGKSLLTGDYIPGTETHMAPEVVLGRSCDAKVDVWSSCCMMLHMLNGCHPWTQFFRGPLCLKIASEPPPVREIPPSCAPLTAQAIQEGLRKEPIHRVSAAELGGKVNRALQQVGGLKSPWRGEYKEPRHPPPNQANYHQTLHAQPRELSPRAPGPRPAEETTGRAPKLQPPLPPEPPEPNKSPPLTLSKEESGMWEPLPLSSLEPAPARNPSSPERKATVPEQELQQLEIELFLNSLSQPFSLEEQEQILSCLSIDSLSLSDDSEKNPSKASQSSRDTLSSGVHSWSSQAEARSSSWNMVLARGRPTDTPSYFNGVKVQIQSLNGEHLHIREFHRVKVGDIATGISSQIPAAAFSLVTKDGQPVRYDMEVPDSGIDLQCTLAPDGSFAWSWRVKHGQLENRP

`O=C(O)/C=C/c1cc(Br)c(Br)c(Br)c1Br` gave a residual activity [1] of 100%, a residual activity [2] of 99.6% and a residual activity [3] of 92.3%. It also gave a residual activity [4] of 59.1%, a residual activity [5] of 79.2% and a residual activity [6] of 98.5%. For the same compound, the residual activity [7] was 85.5%, the residual activity [8] was 92.4% and the residual activity [9] was 63.5%. The residual activity [10] was 92%, the residual activity [11] was 97.9% and the residual activity [12] was 91.3%. The residual activity [13] was 89.4%, the residual activity [14] was 85.6% and the residual activity [15] was 97.9%. The residual activity [16] was 110%, the residual activity [17] was 90.3% and the residual activity [18] was 97.9%. For the same compound, the residual activity [19] was 87.5%, the residual activity [20] was 98.1% and the residual activity [21] was 96.2%. The residual activity [22] was 92.4%, the residual activity [23] was 91.1% and the residual activity [24] was 88.4%. It also gave a residual activity [25] of 100%, a residual activity [26] of 98.9% and a residual activity [27] of 94%. For the same compound, the residual activity [28] was 98.5%, the residual activity [29] was 105% and the residual activity [30] was 51.5%. For the same compound, the residual activity [31] was 104%, the residual activity [32] was 102% and the residual activity [33] was 97.8%. For the same compound, the residual activity [34] was 101%, the residual activity [35] was 102% and the residual activity [36] was 94.4%. For the same compound, the residual activity [37] was 102%, the residual activity [38] was 62% and the residual activity [39] was 105%. For the same compound, the residual activity [40] was 66.9%, the residual activity [41] was 89.5% and the residual activity [42] was 97.5%.

For `O=C1NC(=O)/C(=C\c2ccc3nccnc3c2)S1`, the residual activity [1] was 101%, the residual activity [2] was 104% and the residual activity [3] was 94.2%. For the same compound, the residual activity [4] was 96.3%, the residual activity [5] was 78.6% and the residual activity [6] was 92.4%. It also gave a residual activity [7] of 101%, a residual activity [8] of 97.9% and a residual activity [9] of 80.9%. The residual activity [10] was 92.2%, the residual activity [11] was 93.9% and the residual activity [12] was 92.3%. It also gave a residual activity [13] of 91.8%, a residual activity [14] of 99.7% and a residual activity [15] of 95.3%. It also gave a residual activity [16] of 85.2%, a residual activity [17] of 95.6% and a residual activity [18] of 93.3%. For the same compound, the residual activity [19] was 87.5%, the residual activity [20] was 88.7% and the residual activity [21] was 93%. The residual activity [22] was 92.1%, the residual activity [23] was 94.2% and the residual activity [24] was 38.8%. It also gave a residual activity [25] of 91.2%, a residual activity [26] of 76% and a residual activity [27] of 102%. It also gave a residual activity [28] of 99.1%, a residual activity [29] of 81.8% and a residual activity [30] of 95.7%. The residual activity [31] was 101%, the residual activity [32] was 98% and the residual activity [33] was 104%. It also gave a residual activity [34] of 97.4%, a residual activity [35] of 95% and a residual activity [36] of 85.5%. The residual activity [37] was 95%, the residual activity [38] was 98.2% and the residual activity [39] was 93.4%. For the same compound, the residual activity [40] was 91.4%, the residual activity [41] was 86.7% and the residual activity [42] was 101%.

In the case of `Cn1nc2c3c(cccc31)C(=O)c1ccccc1-2`, the residual activity [1] is reported as 107%, the residual activity [2] is reported as 112% and the residual activity [3] is reported as 91.4%. It also gave a residual activity [4] of 20.8%, a residual activity [5] of 98.4% and a residual activity [6] of 95.1%. The residual activity [7] was 101%, the residual activity [8] was 105% and the residual activity [9] was 85.1%. For the same compound, the residual activity [10] was 88.2%, the residual activity [11] was 92.4% and the residual activity [12] was 87%. For the same compound, the residual activity [13] was 89.4%, the residual activity [14] was 105% and the residual activity [15] was 93.8%. The residual activity [16] was 89.4%, the residual activity [17] was 89.3% and the residual activity [18] was 103%. It also gave a residual activity [19] of 84.3%, a residual activity [20] of 95.4% and a residual activity [21] of 108%. For the same compound, the residual activity [22] was 95.9%, the residual activity [23] was 95% and the residual activity [24] was 53.1%. It also gave a residual activity [25] of 88.3%, a residual activity [26] of 85.7% and a residual activity [27] of 93.1%. The residual activity [28] was 106%, the residual activity [29] was 102% and the residual activity [30] was 93.5%. The residual activity [31] was 109%, the residual activity [32] was 94.8% and the residual activity [33] was 89.5%. For the same compound, the residual activity [34] was 95.9%, the residual activity [35] was 102% and the residual activity [36] was 99.6%. The residual activity [37] was 78.9%, the residual activity [38] was 97.2% and the residual activity [39] was 94%. The residual activity [40] was 96.3%, the residual activity [41] was 97% and the residual activity [42] was 98.9%.

`Cn1sc(=O)n(Cc2ccccc2)c1=O` gave a residual activity [1] of 81.6%, a residual activity [2] of 92.3% and a residual activity [3] of 99.5%. For the same compound, the residual activity [4] was 100%, the residual activity [5] was 94.4% and the residual activity [6] was 102%. For the same compound, the residual activity [7] was 98.5%, the residual activity [8] was 90.1% and the residual activity [9] was 97%. For the same compound, the residual activity [10] was 99.7%, the residual activity [11] was 114% and the residual activity [12] was 97.2%. For the same compound, the residual activity [13] was 95.1%, the residual activity [14] was 100% and the residual activity [15] was 105%. The residual activity [16] was 96%, the residual activity [17] was 98.8% and the residual activity [18] was 96.7%. For the same compound, the residual activity [19] was 96.1%, the residual activity [20] was 100% and the residual activity [21] was 107%. For the same compound, the residual activity [22] was 92.8%, the residual activity [23] was 99.3% and the residual activity [24] was 99%. For the same compound, the residual activity [25] was 93.2%, the residual activity [26] was 97.7% and the residual activity [27] was 91.5%. The residual activity [28] was 97.5%, the residual activity [29] was 114% and the residual activity [30] was 106%. It also gave a residual activity [31] of 90.1%, a residual activity [32] of 92.2% and a residual activity [33] of 103%. It also gave a residual activity [34] of 91.6%, a residual activity [35] of 98.2% and a residual activity [36] of 116%. For the same compound, the residual activity [37] was 107%, the residual activity [38] was 98.1% and the residual activity [39] was 114%. It also gave a residual activity [40] of 97.3%, a residual activity [41] of 96.2% and a residual activity [42] of 99.2%.
